Activity calls are given as the source filed them. The rule behind the calls is not given here.
Legend:
[1] = Cytotoxicity against human non-infected J-Lat A10.6 cells assessed as cell death by CCK8 assay; assay type: toxicity, cell-based, J-Lat 10.6
[2] = test system: Human immunodeficiency virus 1; assay: Reversal of HIV-1 latency in CD4+ T-lymphoid J-Lat cells contains HIV-1 long terminal repeats (LTR)-Tat-GFP assessed as reactivation measured after 48 hrs by flow cytometry; assay type: functional, organism-based; conditions: Human immunodeficiency virus 1, J-Lat 10.6, 48 h
[3] = target: Bromodomain-containing protein 4 (Homo sapiens) (UniProt O60885); assay: Inhibition of BRD4 BD2 domain (unknown origin) at 1 uM by HTRF assay
[4] = target: Bromodomain-containing protein 4 (Homo sapiens) (UniProt O60885); assay: Inhibition of BRD4 BD1 domain (unknown origin) at 1 uM by HTRF assay
[5] = test system: Human immunodeficiency virus 1; assay: Reversal of HIV-1 latency in ACH-2 cell line contains complete HIV-1 provirus assessed as reactivation by measuring HIV-1 p24 antigen expression 5 uM measured after 48 hrs by ELISA; assay type: functional, organism-based

SMILES | EC50 [2] [µM] | inhibition [3] | inhibition [4] | CC50 [1] [µM] | Activity [5]
Cc1nnc2ccc(-c3cc(NC(=O)CCCCCCC(=O)NO)ccc3Oc3ccc(Cl)cc3F)cn12 | 13.4 |  |  | 28.7 | 
Cc1nnc2ccc(-c3cc(NC(=O)C4CC4)ccc3Oc3ccc(F)cc3F)cn12 | > 50 |  |  | > 50 | 
CCS(=O)(=O)Nc1ccc(Oc2ccc(Cl)cc2F)c(-c2ccc3nnc(C)n3c2)c1 | 5.6 | Active | Active | 12.3 | Active
Cc1nnc2ccc(-c3cc(NC(=O)CCCCCCC(=O)NO)ccc3Oc3ccc(F)cc3F)cn12 | > 50 |  |  | > 50 | 
CCC(=O)Nc1ccc(Oc2ccc(F)cc2F)c(-c2ccc3nnc(C)n3c2)c1 | 17.8 |  |  | > 50 | 
CCS(=O)(=O)Nc1ccc(Oc2ccc(F)cc2F)c(-c2cn(C)c(=O)c3[nH]ccc23)c1 |  | Active | Active |  | Active
COC(=O)CCCCCCC(=O)Nc1ccc(Oc2ccc(Cl)cc2F)c(-c2ccc3nnc(C)n3c2)c1 | > 50 |  |  | > 50 | 
Cn1cc(-c2cc(NS(=O)(=O)c3ccc(F)cc3)ccc2Oc2ccc(Cl)cc2F)c2cc[nH]c2c1=O |  | Active | Active |  | 
CCS(=O)(=O)Nc1ccc(Oc2ccc(Cl)cc2Cl)c(-c2ccc3nnc(C)n3c2)c1 |  |  |  |  | Active
COC(=O)CCCCCCC(=O)Nc1ccc(Oc2ccc(F)cc2F)c(-c2ccc3nnc(C)n3c2)c1 | > 50 |  |  | > 50 | 
C=CS(=O)(=O)Nc1ccc(Oc2ccc(Cl)cc2F)c(-c2ccc3nnc(C)n3c2)c1 | 2 | Active | Active | 44.2 | 
Cc1nnc2ccc(-c3cc(NC(=O)C(C)(C)C)ccc3Oc3ccc(Cl)cc3F)cn12 | > 50 |  |  | 32.9 | 

Now from value to compound, other results behind:

EC50 [2] [µM] | inhibition [3] | inhibition [4] | SMILES | CC50 [1] [µM] | Activity [5]
> 50 |  |  | COc1ccc(Br)cc1S(=O)(=O)Nc1ccc(Oc2ccc(F)cc2F)c(-c2ccc3nnc(C)n3c2)c1 | > 50 | 
5.4 | Active | Active | CCCS(=O)(=O)Nc1ccc(Oc2ccc(F)cc2F)c(-c2ccc3nnc(C)n3c2)c1 | 44.7 | 
4.3 | Active | Active | Cc1nnc2ccc(-c3cc(NS(=O)(=O)C4CC4)ccc3Oc3ccc(F)cc3F)cn12 | > 50 | Active
> 50 |  |  | Cc1nnc2ccc(-c3cc(NS(=O)(=O)c4ccc(C(F)(F)F)cc4)ccc3Oc3ccc(F)cc3F)cn12 | > 50 | 
> 50 | Active | Active | Cc1nnc2ccc(-c3cc(NS(=O)(=O)c4ccccc4)ccc3Oc3ccc(F)cc3F)cn12 | > 50 | 
17.2 | Active | Active | Cc1nnc2ccc(-c3cc(NS(=O)(=O)c4cccc(Br)c4)ccc3Oc3ccc(F)cc3F)cn12 | > 50 | 
 | Active | Active | Cc1nnc2ccc(-c3cc(NS(=O)(=O)c4cccs4)ccc3Oc3ccc(Cl)cc3F)cn12 |  | Active
> 50 |  |  | Cc1nnc2ccc(-c3cc(NS(=O)(=O)c4ccc([N+](=O)[O-])cc4)ccc3Oc3ccc(F)cc3F)cn12 | > 50 | 
6.8 | Active | Active | COc1ccc(S(=O)(=O)Nc2ccc(Oc3ccc(F)cc3F)c(-c3ccc4nnc(C)n4c3)c2)cc1 | > 50 | 
> 50 |  |  | Cc1ccc(S(=O)(=O)Nc2ccc(Oc3ccc(F)cc3F)c(-c3ccc4nnc(C)n4c3)c2)cc1 | > 50 | 
17.7 | Active | Active | Cc1nnc2ccc(-c3cc(NS(=O)(=O)c4ccc(Cl)cc4)ccc3Oc3ccc(F)cc3F)cn12 | > 50 | 
> 50 |  |  | Cc1nnc2ccc(-c3cc(NS(=O)(=O)c4ccc(Br)cc4)ccc3Oc3ccc(F)cc3F)cn12 | 43.9 | 

Source: ChEMBL document CHEMBL5357021, “Novel Triazolopyridine-Based BRD4 Inhibitors as Potent HIV-1 Latency Reversing Agents” (ACS Med Chem Lett, 2024)
